Data on 22 molecules can be found in patent US7368429B2, “Peptide specificity of anti-myelin basic protein and the administration of myelin basic protein peptides to multiple sclerosis patients” (The Governors of the University of Alberta, priority 1991, dated 2008).

“Also recorded” adds a separate entry of the source. Where a SMILES comes first, the peptide text is derived from it. Where no end group is shown, it is not given here.

Data set [1] has as its system anti-MBP purified from CSF of MS patients. The data set is described as follows: In vitro neutralization of purified anti-MBP (liquid phase assay, then solid phase radioimmunoassay). The class given is binding, human. The settings on record: for REACTIVITY WITH ANTI-MBP: purified anti-MBP, h-MBP 0-1000 ng, peptides 0-10,000 ng, 1.5 hours incubation; for neutralization of purified anti-MBP: pooled anti-MBP from 10 MS patients, FIG. 2; for neutralization of anti-MBP purified from individual patients: anti-MBP from 7 individual MS patients, FIG. 3; for times less effective on a molar basis than intact MBP at causing inhibition: peptides giving complete inhibition. From the text:
Purified MBP was coupled to CNBr-activated Sepharose 4B (Pharmacia™) according to the manufacturer's instructions. Purified CSF IgG containing increased anti-MBP levels from 35 patients with acute MS relapses was used to isolate anti-MBP by MBP-Sepharose affinity chromatography (Warren, K. G. and Catz, I., J Neurol Sci 103:90-96, 1991). Purified anti-MBP samples were compared with the initial IgG source by poly-acrylamide gel electrophoresis. When purified anti-MBP samples were absorbed to zero with MBP, the post-absorption supernatants contained no residual IgG indicating the purity of anti-MBP.
Constant amounts of anti-MBP (15 radioactivity binding units corresponding to 100 for scale expansion purposes=% 0) were incubated with increasing amounts of h-MBP (0-1000 ng) or individual peptides of MBP (0-10,000 ng) in a liquid phase assay and after 1.5 hours incubation, free anti-MBP levels were determined in all mixtures. Anti-MBP isolated from 7 individual MS patients or pooled anti-MBP from 10 different MS patients were used in neutralization experiments. […] Another mouse monoclonal antibody to epitope 45-50 was used as negative antibody control.
Anti-MBP levels were determined by a solid phase radioimmunoassay with human MBP (Warren, K. G. and Catz, I., Ann Neurol 209:20-25, 1986; Warren, K. G. and Catz, I., Ann Neurol 21:183-187, 1987; and Warren, K. G. and Catz, I., J Neurol Sci 91:143-151, 1989). Free anti-MBP levels were measured in all fractions from affinity chromatography and in all neutralization mixtures. All individual samples were run in quadruplicate using the same iodinated material in order to minimize between-assay variability.

Data set [2] can be described thus: Safety monitoring of MS patients after peptide administration. It counts as in vivo, human.
Another data set concerns CSF anti-MBP. Put plainly: Intrathecal peptide administration to MS patients, CSF anti-MBP by radioimmunoassay. It counts as in vivo, human. The protocol: Anti-MBP levels were determined by a solid phase radioimmunoassay with human MBP coated on Immulon microtiter wells. Immulon microtiter wells were coated with 100 μl of 10 μg/ml of MBP (1 μg/well) and incubated overnight at 37° C. After quenching with bovine serum albumin (BSA) and three water washes, the wells were stored at room temperature. Samples of 100 μl of CSF or tissue extracts diluted to 0.010 gm of IgG/l (with 0.01 M Barbitol Buffered Saline (BBS) pH 6.9-7.1, 0.5% BSA and 0.05% Tween 20) were incubated in MBP-coated wells for 1-2 hours at room temperature. After 5 buffer washes (with 0.01 M BBS, 0.5 BSA and 0.05% Tween 20), wells were incubated with goat […] IgG-Fc specific (in 0.01 M BBS, 0.05% Tween 20, 0.5% BSA) for 1 hour at room temperature and then rinsed as above. Finally, ^125I-protein A (or ^125I-protein G) was added and incubated for 1 hour at room temperature. When ^125I-protein G was used as a tracer, ovalbumin replaced BSA in assay buffer and for quenching. After three final water washes wells were individually counted. Results are expressed in radioactivity defined as: (counts of sample−counts of blank)÷(counts of total radioactivity−counts of blank). All samples are run in 10 replicate and counting time is 10 minutes in order to collect>10,000 counts for any positive sample.
Prior to being assayed all CSF and/or tissue samples were diluted to a final IgG concentration of 0.010 g/l. F anti-MBP was detected directly in CSF or tissue extract while B levels of antibody were determined following acid hydrolysis of immune complexes with glycine HCl buffer pH 2.2. […] For epitope localization, synthetic peptides were firstly reacted with purified antibody in a liquid phase competitive assay and then anti-MBP was determined by radioimmunoassay in all resulting supernatants. Results of the combined competitive binding assay and radioimmunoassay were expressed as percent inhibition of synthetic peptide defined as 100—radioactivity units. Samples were done in 10 replicates and counted for 10 minutes each in a LKB1275 Minigamma counter. […]
A Phase 1 experiment to determine the effect of synthetic peptide MBP75-95 on F and B titers of CSF anti-MBP was conducted. […] After obtaining informed consent, 14 patients volunteered for this study; eight patients were selected on the basis of their initial titre of F CSF anti-MBP (above 8 radioactivity units) (Table 2) to receive one intrathecal injection of either peptide MBP75-95 which bound anti-MBP in vitro or a non-binding control peptide MBP35-58 (Warren and Catz, 1993b). […] Cell counts, total protein, glucose, IgG and albumin levels were determined in all CSF samples obtained. F and B anti-MBP levels were determined by radioimmunoassay, as described above. […]

In data set [3] the target is purified anti-MBP (antibodies to human myelin basic protein purified from CSF of multiple sclerosis patients; pooled from 10 different patients). The data set is described as follows: liquid-phase neutralization + solid-phase RIA on human MBP; reference intact MBP.
Data set [4] concerns the target purified B (bound) anti-MBP from MS brain tissue. The data set is described as follows: competitive inhibition assays using a series of 41 decapeptides.
For data set [5] the target is unchanged. Put plainly: liquid-phase competitive inhibition + solid-phase RIA on human MBP (FIG. 10).
In data set [6] the target is purified F (free) anti-MBP from MS brain tissue. Described as above.
For data set [7], the target named is free (F) anti-MBP in the CSF of MS patients. The data set is described as follows: cell-based or functional assay.

“26-40: synthetic peptide of human MBP sequence 26-40 (HGFLPRHRDTGILDS)”: the “REACTIVITY WITH ANTI-MBP” value in data set [1] is reported as “−”.
The same measure, in the same setting: the entry for “117-129: synthetic peptide of human MBP sequence 117-129 (GAEGQRPGFGYGG)” is “−”; for “141-155: synthetic peptide of human MBP sequence 141-155 (FKGVDAQGTLSKIFK)” it is “−”.
With `CC[C@H](C)[C@H](NC(=O)[C@H](CC(N)=O)NC(=O)[C@H](CCCCN)NC(=O)[C@H](Cc1ccccc1)NC(=O)[C@H](Cc1ccccc1)NC(=O)[C@H](Cc1c[nH]cn1)NC(=O)[C@@H](NC(=O)[C@@H](NC(=O)[C@@H]1CCCN1C(=O)[C@H](CC(N)=O)NC(=O)[C@H](CCC(=O)O)NC(=O)[C@H](CC(=O)O)NC(=O)[C@H](CCC(N)=O)NC(=O)[C@@H](NC(=O)[C@H](CCCNC(=N)N)NC(=O)CNC(=O)[C@H](Cc1c[nH]cn1)NC(=O)[C@H](CO)NC(=O)[C@@H](N)CCCCN)[C@@H](C)O)C(C)C)C(C)C)C(=O)N[C@H](C(=O)N[C@H](C(=O)O)[C@@H](C)O)C(C)C` [MBP75-95] (H-KSHGRTQDENPVVHFFKNIVT-OH; N-terminus and C-terminus assumed), in data set [2] (500 mg intravenously over 30 minutes, patient 8M41), the adverse effects entry was “No adverse effects were observed”. In addition, in data set [2] (repeated intrathecal inoculations), the “systemic complications (electrolytes, cardiac-liver-kidney dysfunction, hematology)” value is reported as “no adverse complications have occurred”.
Turning to “Cy 4-18: synthetic peptide of human MBP sequence 4-18 with unnatural cysteine residue (CKRPSQRHGSKYLATA)”, the “REACTIVITY WITH ANTI-MBP” value in data set [1] was “−”.
On to “Cy 11-24: synthetic peptide of human MBP sequence 11-24 with unnatural cysteine residue (CGSKYLATASTMDHA)”, for which, in data set [1], the “REACTIVITY WITH ANTI-MBP” value was “−”.
Consider “Cy 51-64 Gly: synthetic peptide of human MBP sequence 51-64 with added Cy and Gly (CAPKRGSGKDSHHPAG)”, for which, in data set [1], the “REACTIVITY WITH ANTI-MBP” value was “+”.
In the case of “Cy 127-140: synthetic peptide of human MBP sequence 127-140 with unnatural cysteine residue (CYGGRASDYKSAHKG)”, the “REACTIVITY WITH ANTI-MBP” value in data set [1] is “−”.
The same measure, in the same setting: the value for “Cy 136-149: synthetic peptide of human MBP sequence 136-149 with unnatural cysteine residue (CSAHKGFKGVDAQGT)” was “−”.
Consider HHPARTAHYGSLPQK [MBP61-75], for which, in data set [1], the “neutralization of purified anti-MBP” value is “partially neutralized” and the “REACTIVITY WITH ANTI-MBP” value was “+”.
For the molecule KNIVTPRTPPPSQGKG [MBP91-106], in data set [1], the “neutralization of anti-MBP purified from individual patients” value is “completely neutralized”, the “times less effective on a molar basis than intact MBP at causing inhibition” value was “approximately 100 times”, the “neutralization of purified anti-MBP” value is listed as “completely neutralized” and the “REACTIVITY WITH ANTI-MBP” value is reported as “−”.
On to “MBP35-58: non-binding, control synthetic peptide of human MBP, residues 35-58 (TGILDSIGRFFGGDRGAPKRGSGK)”, for which the “REACTIVITY WITH ANTI-MBP” value in data set [1] is listed as “−”. Also, the “CSF F anti-MBP” value in the data set on CSF anti-MBP (single intrathecal injection 5 mg) is given as “remained elevated at baseline level”; with CSF anti-MBP (single intrathecal injection 10 mg, chronic progressive MS), “persistently elevated”. Also, the “F and B levels of CSF anti-MBP” value in the data set on CSF anti-MBP (single intrathecal injection 1, 2.5, 5 or 10 mg, 24 hour experiment, chronic progressive MS) is “remained unchanged; also recorded: remained unaffected”. Further, the “CSF F (free) anti-MBP” value in the data set on CSF anti-MBP (single intrathecal injection, increasing amounts 1-10 mg, chronic progressive MS) was “did not react”.
With “Thr Gln Asp Glu Asn Pro Val Val His Phe Phe Lys Asn Ile Val Thr Pro Arg (CTQDENPVVHFFKNIVTPRG) [MBP80-97]”, in data set [1], the “neutralization of anti-MBP purified from individual patients” value was “completely neutralized”, the “times less effective on a molar basis than intact MBP at causing inhibition” value is given as “approximately 100 times”, the “neutralization of purified anti-MBP” value was “completely neutralized” and the “REACTIVITY WITH ANTI-MBP” value was “++”.
For the molecule YGSLPQKSHGRTQDE [MBP69-83], in data set [1], the “neutralization of purified anti-MBP” value is on record as “partially neutralized” and the “REACTIVITY WITH ANTI-MBP” value is “++”.

B1: peptide MBP91-106 (Cy 91-106) (peptide)
peptide: CKNIVTPRTPPPSQGKG
As for B1, in data set [3], the times less effective on a molar basis than intact MBP at causing inhibition came to 100 times.

B2: peptide MBP80-97 (Cy 80-97 Gly) (peptide)
peptide: CTQDENPVVHFFKNIVTPRG
B2: the times less effective on a molar basis than intact MBP at causing inhibition in data set [3] amounted to 100 times.

B3: peptide MBP75-95 (Cy 75-95, Example 1) (peptide)
peptide: CKSHGRTQDENPVVHFFKNIVT
In the case of B3, the times less effective on a molar basis than intact MBP at causing inhibition in data set [3] came to 100 times.

B4: decapeptide MBP86-95 (peptide)
peptide: VVHFFKNIVT
On to B4, for which the results for the percent inhibition in data set [4], in data set [5] and in data set [6] were > 95%, > 80% and > 80%, respectively.

B5: decapeptide MBP84-93 (peptide)
peptide: NPVVHFFKNI
Regarding B5, the percent inhibition in data set [5] and in data set [6] was > 80% throughout.

B6: decapeptide MBP87-96 (peptide)
peptide: VHFFKNIVTP
Consider B6, for which the percent inhibition in data set [5] and in data set [6] was > 80% throughout.

B7: synthetic peptide MBP75-95 (Example 2 and later) (peptide)
peptide: KSHGRTQDENPVVHFFKNIVT
For the molecule B7, the decrease in F anti-MBP level in CSF after one intrathecal injection of 1 mg MBP75-95 (patient 6F53) in data set [7] worked out at 75%. Moreover, the percent inhibition in data set [5] and in data set [6] was 100% throughout.

B8: decapeptide MBP85-94 (peptide)
peptide: PVVHFFKNIV
B8: the percent inhibition in data set [5] and in data set [6] was > 80% in each case.
